Laboratory results from patent US5100907A, “Hydantoin esters” (Lonza, Inc., priority 1990, dated 1992).
Where two headings read alike, the source gives them in different places.

Legend:
Format in all cases: physicochemical
Emulsion stability tests = conditions: for Classification of Emulsion: 2% ester, 7% myristyl propionate, 91% water
Procedure: Emulsion stability tests were performed on the esters (I), and for comparison on the precursor esters (Ia), to determine the extent to which each stabilized a standardized solution of water and an oil, using a common procedure consisting of homogenizing a mixture containing the test ester (2%), myristyl propionate (7%), and water (91%). While two emulsifiers are normally used to prepare a cosmetic formulation, e.g. one with a high HLB and the other with a low HLB, the test method herein using only one emulsifier, i.e. the test ester, is fully indicative of the emulsifying attributes of these esters.
The tests were performed with emulsions (500 g), prepared by combining the test ester (10.0 g), myristyl propionate (35 g), and distilled water (455 g) in a container and homogenizing the contents for one minute, via a Kika-Werk Ultra-Turrax S D-45 homogenizer. The emulsions were poured into a one pound flint jar, capped, and periodically examined over a 55 day period.

[1] = Physical properties of methylolated MHEDMH esters (I): viscosity; conditions: at 25° C.
[2] = Surface tension tests (cmc, Gibbs' Free Energy of Micellation); conditions: for ΔG°cmc (Gibbs' Free Energy of Micellation): calculated from cmc by Eq. 1, T=298° K.; for cmc (critical micelle concentration): ester/water solution
Procedure: Surface tension tests were conducted as to the relationship between the fatty acid aliphatic chain length, i.e. number of carbon atoms, in the esters (I), and their performance as surfactants. The length of the hydrophobic chain of a molecule is considered the major contributing factor to the critical micelle concentration (cmc) value of a surfactant. This value is obtained from surface tension measurement data. The lower the cmc, the more readily the material will form micelles.
The Gibbs' Free Energy of Micellation (ΔG°cmc) and the ΔG°cmc per --CH2 -- can be determined if the cmc is known.
The ΔG°cmc is a calculated value obtained by Equation 1.
ΔG°cmc =2.303RT(log cmc-log[water]) (Eq. 1)
The ΔG°cmc per --CH2 -- value is obtained from the slope of the straight line curve formed from a plot of ΔG°cmc versus the number of carbon atoms in the lipophilic chain.
The cmc values were based on surface tension tests conducted with a tensiometer (Cenco-DuNoug Precision Model #70535, direct reading model) to determine the upward surface tension at the liquid-air surface of the test ester/water solution. The methods used to calibrate the tensiometer, calculate the "correction factor" (used to correct for the difference between the apparent and true surface tension), and collect data, were conducted as described in the manual for the instrument. Sodium lauryl sulfate (SLS) and distilled water were used as reference samples.
On completing data collection, plots of the surface tension (dynes) versus -log of the concentration (mols/liter) were prepared, using only the "corrected" surface tension value, obtained by applying the noted "correction factor" in each case. The […] was found by multiplying the "apparent" surface tension by a calculated correction factor.
The critical micelle concentration (cmc) for each sample was determined by locating the point in the curve where the surface tension first begins to level off, per a known procedure.

[3] = Dispersion stability tests
Procedure: The dispersion stability tests were performed on the esters (I) to determine the extent each was able to disperse itself in an aqueous medium.
The dispersions were prepared by homogenizing a mixture of the test ester and water, after which repeated examination of the sample was effected for a period of 55 days. This test method is fully indicative of the dispersibility of these esters (I).
The dispersion tests were performed with the esters at 0.5% and 5.0% active levels in water, prepared by combining the test ester with distilled water, and homogenizing the mixture for one to three minutes, via a Kika-Werk Ultra-Turrax S D-45 homogenizer. The dispersions were poured into an eight ounce flint jar, capped, and periodically examined over a 55 day period.

[4] = HLB determination (weighted average method)
From the text: Hydrophilic-Lipophilic Balance or HLB is a means of associating the hydrophilic and lipophilic characteristics between two surfactants. A "weighted average" method was used to determine the HLB of the esters (I), and by comparison of the precursor ester (Ia), in which two emulsifiers of known HLB values along with the test ester were incorporated in a mixture of mineral oil and water. Evaluation and HLB determination of each of a series of prepared emulsion samples were effected by visual inspection.
The HLB of the mixture "m" is calculated from the sum of the HLB contributions of each surfactant, "a", "b", "c", per Equation 2 which describes a system of oil, water, and three surfactants.
Given that [HLB]m, [HLB]a, and [HLB]b, are known, and the ideal amount of "a", "b", and "c" to prepare a perfect emulsion has been determined, then by rearrangement of Eq. 2, the HLB of "c" can be calculated by Equation 3.
To obtain the HLB of the test ester as surfactant "c", a series of formulations was prepared in which the known surfactant sorbitan monostearate (SMS) as "a" and the known surfactant POE 20 sorbitan monostearate (POE 20 SMS) as "b" were varied in amount (wt. %) relative to each other at a constant amount (1 wt. %) of "c", until an optimum emulsion was obtained. Different combinations of "a" and "b" were used to vary the HLB of "c", for emulsifying a 40:56 (wt. %) mixture of paraffin oil and distilled water (totaling 96 wt. %).
To prepare the emulsions, surfactants "a", "b", and "c", and the paraffin oil were combined in a 150 ml beaker and heated slowly with agitation to 70°-80° C. The value of "X" in each formulation was predetermined by rearranging Eq. 3 to solve for X, and then inserting into the equation various [HLB]c values for the test ester (i.e., 2, 3, 4, 5, 6 . . . ). The [HLB]c values chosen reflected a range that would likely contain the actual HLB of the test ester. Hot distilled water (70°-80° C.) was then slowly added with agitation. The total weight of all these reagents was 100 grams. The resulting emulsion was allowed to cool, with continued agitation, until the temperature dropped below 30° C.
A series of emulsions for each test was prepared, one at a time, and then examined as a set. Each sample within the series was evaluated and graded according to the quality of the emulsion by visual examination of droplet size.

[5] = Total available formaldehyde (TF) and free formaldehyde (FF) levels of esters (I); conditions: for Calculated TF / Determined FF / Ratio FF/TF: 1% active concentration in water; for FF (free formaldehyde) / TF (total available formaldehyde): neat ester, Table 3; for FF/TF ratio: water
From the text: Thus, whether the formaldehyde content is chemically bonded to the hydantoin moiety or is free formaldehyde (FF) in solution, e.g., in water as formaldehyde or methylene glycol [CH2 (OH)2 ], it remains available for biocidal action. Due to this direct relation, the weight percent TF in a given preparation of the ester (I), e.g. a cosmetic formulation, can be predicted accurately, regardless of the level of dilution.

[6] = Solubilities of esters in typical solvents / appearance of samples in water; conditions: for Solubility in isopropyl alcohol / Solubility in mineral oil / solubility: 25° C.; for solubility: water
[7] = grams, legend per 100 g Solvent

Compound | emulsion quality, decreasing order of rank (Emulsion stability tests) | Viscosity [1] | ΔG°cmc (Gibbs' Free Energy of Micellation) [2] [kcal/mol] | cmc (critical micelle concentration) [2] | dispersion quality, decreasing order of rank [3] | Average HLB [4] | HLB Range [4] | Calculated TF [5] [Wt. %] | Determined FF [5] [Wt. %] | FF (free formaldehyde) [5] [Wt. %] | TF (total available formaldehyde) [5] [Wt. %] | Classification of Emulsion (Emulsion stability tests; 2 Hours after preparation) | Classification of Dispersion ([3]; 0.5% active in water, 3 Days) | Classification of Dispersion ([3]; 0.5% active in water, 13 Days) | Classification of Dispersion ([3]; 0.5% active in water, 55 Days) | Classification of Dispersion ([3]; 5.0% active in water, 3 Days) | Classification of Dispersion ([3]; 5.0% active in water, 13 Days) | Classification of Dispersion ([3]; 5.0% active in water, 55 Days) | Solubility in isopropyl alcohol [6] | Ratio FF/TF [5] | other results
2-(3-hydroxymethyl-5,5-dimethyl-1,3-diazacyclopentane-2,4-dion-1-yl)-ethylester of isostearic acid [Isostearic Methylolated Ester] | cocoate, laurate>oleate,isostearate>stearate>C8/10 ester>acetate | 957 cts | -7.13 | 3.0 × 10^-4 mol dm^-3 | isostearate>oleate>cocoate>laurate>C8/10ester>>stearate>acetate | 15.0 | 14-16 | 0.062 | 0.0082 | 0.2 | 6.2 | – | – | – | – | – | – | – | – | – | surface active properties [2]: particularly favorable surface active properties
CC(=O)OCCN1C(=O)N(CO)C(=O)C1(C)C [Acetic Methylolated Ester, 2-(3-hydroxymethyl-5,5-dimethyl-1,3-diazacyclopentane-2,4-dion-1-yl)-ethylester of acetic acid] | cocoate, laurate>oleate,isostearate>stearate>C8/10 ester>acetate | 4,384 cts | -3.896 | 7.24 × 10^-3 mol dm^-3 | isostearate>oleate>cocoate>laurate>C8/10ester>>stearate>acetate | 19.0 | 19-20 | 0.123 | 0.0199 | 0.6 | 12.3 | 2-Phase | Dissolved | Dissolved | Dissolved | Dissolved | Dissolved | Dissolved | S (>10 g/100 g Solvent) | 0.162 | ability to stabilize emulsions (Emulsion stability tests): generally unable to stabilize an emulsion for more than two hours; Classification of Emulsion (Emulsion stability tests; 7 Days after preparation): 2-Phase; Classification of Emulsion (Emulsion stability tests; 22 Days after preparation): 2-Phase; Classification of Emulsion (Emulsion stability tests; 55 Days after preparation): 2-Phase; Classification of Dispersion ([3]; 0.5% active in water, 2 Hours): Dissolved; Classification of Dispersion ([3]; 5.0% active in water, 2 Hours): Dissolved; Average HLB ([4]; listed as acetate (I)): 19; Solubility in mineral oil [6, 7]: 3 g; solubility [6]: > 100 mg/mL; FF/TF ratio ([5]; concentration 0.1%): 0.25; FF/TF ratio ([5]; concentration 1%): 0.20; FF/TF ratio ([5]; concentration levels >5%): about 0.15%
CCCCCCCCCCCCCCCCCC(=O)OCCN1C(=O)N(CO)C(=O)C1(C)C [Stearic Methylolated Ester, 2-(3-hydroxymethyl-5,5-dimethyl-1,3-diazacyclopentane-2,4-dion-1-yl)-ethylester of stearic acid] | cocoate, laurate>oleate,isostearate>stearate>C8/10 ester>acetate | – | -5.277 | 7.0 × 10^-3 mol dm^-3 | isostearate>oleate>cocoate>laurate>C8/10ester>>stearate>acetate | 7.0 | 6-8 | 0.064 | 0.0066 | 0.2 | 6.4 | Good/OK | 2-Phase | 2-Phase | 2-Phase | 2-Phase | 2-Phase | 2-Phase | S (>10 g/100 g Solvent) | 0.103 | Average HLB ([4]; listed as stearate (I)): 7; water solubility relative to the other esters [6]: far less soluble in water than the other such esters; Solubility in mineral oil [6]: S (>10 g/100 g Solvent); solubility [6, 7]: < 10 mg/mL
